# In EP0411395A2, “Use of ACE inhibitors for atherosclerosis-prophylaxis” (THERA PATENT-VERWALTUNGS-GmbH, priority 1989, dated 1991):
# Experiment: Three-year placebo-controlled study in overweight persons: Doppler sonographic maximal blood flow velocity in the Arteria dorsalis pedis as parameter of atherosclerosis
# Format: in vivo, Patienten
# Conditions: for MAXIMALE BLUTSTRÖMUNGSGESCHWINDIGK.: 2 x 3 mg tgl. oral, Arteria dorsalis pedis
# From the text: Es wurden 122 übergewichtige Personen ausgesucht, die im Mittel 25 % Übergewicht hatten. Diese Patienten gaben nach Aufklärung ihr Einverständnis, an dieser Studie über 3 Jahre teilzunehmen. Sie hatten bereits 5 bis 10 Versuche einer Gewichtsabnahme hinter sich, die alle […] verlaufen waren. Ein Diabetes mellitus war nach der Definition des WHO-Reports (Techn. Rep. Ser. 646, 1 bis 80, 1980) bei diesen Patienten ausgeschlossen. Sie wurden in zwei gleich starke Gruppen eingeteilt, so daß nach Alter sowie Ausmaß und Dauer des Übergewichts kein Unterschied bestand. Die Patienten wurden in halbjährlichen Abständen ambulant kontrolliert. Wie zu Beginn wurden bei diesen Kontrollen folgende Blutwerte gemessen: Blutsenkung, Blutbild, Nüchternblutzucker, IGTT, Gewicht, Cholesterin und Triglyzeride, Serumglutamat-Oxalat-Transaminase (SGOT), Serumglutamat-Pyruvat-Transaminase (SGPT). Damit wurden den Stoffwechsel beeinträchtigende Krankheiten ausgeschlossen. Als Parameter der Atherosklerose wurde die dopplersonographisch bestimmte maximale Blutströmungsgeschwindigkeit in der Arteria dorsalis pedis verwendet. Alle Patienten hatten eine schmerzfreie Gehstrecke von über 200 m, die Arteria dorsalis pedis war gut tastbar. Oszillographisch fand sich kein Anhalt für eine Mediasklerose. Das Vorliegen einer Neuropathie wurde mit den üblichen klinischen Methoden ausgeschlossen.
# Die erste Gruppe erhielt 2 x 3 mg Captopril täglich, die zweite Gruppe entsprechend Placebo. Die Patienten hatten die Auflage, keine den Stoffwechsel beeinträchtigenden Medikamente wie z.B. Diuretika, Betablocker oder dergleichen einzunehmen. In beiden Gruppen schieden über den Zeitraum von 3 Jahren 28 Patienten aus verschiedenen Gründen aus. Die Gruppen veränderten sich dadurch jedoch nicht so sehr, daß sie statistisch nicht mehr auswertbar gewesen wären. […] Die Ergebnisse des Versuchs sind in der nachstehenden Tabelle 1 dargestellt. Tabelle I
compound,measurement,setting,value
"C[C@H](CS)C(=O)N1CCC[C@H]1C(=O)O [Captopril, 1-(2S)-3-Mercapto-2-methylpropionyl -L-prolin]",MAXIMALE BLUTSTRÖMUNGSGESCHWINDIGK.,"1985 - 1 (start), Risikopatienten (Stoffwechselgesunde Übergewichtige), n=63","13,6 ± 0,4 cm/s"
same,MAXIMALE BLUTSTRÖMUNGSGESCHWINDIGK.,"1986 - 2, Risikopatienten, n=60","13,5 ± 0,3 cm/s"
same,MAXIMALE BLUTSTRÖMUNGSGESCHWINDIGK.,"1987 - 2, Risikopatienten, n=54","13,4 ± 0,2 cm/s"
same,MAXIMALE BLUTSTRÖMUNGSGESCHWINDIGK.,"1988 - 1 (after 3 years), Risikopatienten, n=48","13,5 ± 0,2 cm/s"
same,Abfall der maximalen Blutströmungsgeschwindigkeit,"nach 3 Jahren, versus Placebo, 2 x 3 mg Captopril täglich, p 0,05, Student's t-Test",signifikant geringerer Abfall
